Read-outs that look alike come from different tables or passages of the source.
Assays:
[1] = target: T1, cytochrome P450 1A1 (CYP1A1) (Homo sapiens, UniProt P04798); experiment: P450-Glo Luc-CEE luminescence assay with recombinant CYP1A1 microsomes; assay type: biochemical
T1 sequence (P04798 1-512): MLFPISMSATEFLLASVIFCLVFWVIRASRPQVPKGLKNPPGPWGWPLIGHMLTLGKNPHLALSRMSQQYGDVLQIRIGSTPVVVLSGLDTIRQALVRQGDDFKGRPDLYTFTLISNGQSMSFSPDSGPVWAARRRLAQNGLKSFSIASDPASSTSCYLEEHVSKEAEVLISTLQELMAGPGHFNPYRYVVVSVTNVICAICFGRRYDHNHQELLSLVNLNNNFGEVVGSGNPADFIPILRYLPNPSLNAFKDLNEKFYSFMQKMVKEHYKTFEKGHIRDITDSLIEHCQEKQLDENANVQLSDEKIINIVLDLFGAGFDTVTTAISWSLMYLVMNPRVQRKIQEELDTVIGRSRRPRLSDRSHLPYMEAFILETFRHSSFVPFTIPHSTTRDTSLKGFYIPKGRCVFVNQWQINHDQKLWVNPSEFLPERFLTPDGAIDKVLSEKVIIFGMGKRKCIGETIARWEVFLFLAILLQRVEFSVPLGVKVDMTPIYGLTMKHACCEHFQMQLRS

[2] = target: T1, cytochrome P450 1A1 (CYP1A1); experiment: as above; assay type: biochemical; remark: listed apart in the source

Compound | IC50 [1] [µM] | IC50 [2] [µM]
NCCc1c[nH]c2ccc(O)cc12 [5-HT, Serotonin] | 1.62 | –
NCCc1c[nH]c2ccccc12 [TRYPT, Tryptamine] | – | 1.4
O=c1cc(-c2ccccc2)oc2c1ccc1ccccc12 [α-NF, α-naphthoflavone, reference compound] | – | 0.76
